Consider eleven compounds from US5691155A, “Nucleotide sequences encoding the murine β3-adrenergic receptor and their applications” (priority 1991, dated 1997).

Structures are written as SMILES. “Also recorded” adds a separate entry of the source. Where two headings read alike, the source gives them in different places.

For assay [1], the target named is T1, human RA-β3 (Homo sapiens, UniProt P13945).
T1 construct: expressed in transfected cells; host or cells: CHO (Chinese Hamster Ovary), CHO-Huβ3
T1 sequence (P13945 1-402): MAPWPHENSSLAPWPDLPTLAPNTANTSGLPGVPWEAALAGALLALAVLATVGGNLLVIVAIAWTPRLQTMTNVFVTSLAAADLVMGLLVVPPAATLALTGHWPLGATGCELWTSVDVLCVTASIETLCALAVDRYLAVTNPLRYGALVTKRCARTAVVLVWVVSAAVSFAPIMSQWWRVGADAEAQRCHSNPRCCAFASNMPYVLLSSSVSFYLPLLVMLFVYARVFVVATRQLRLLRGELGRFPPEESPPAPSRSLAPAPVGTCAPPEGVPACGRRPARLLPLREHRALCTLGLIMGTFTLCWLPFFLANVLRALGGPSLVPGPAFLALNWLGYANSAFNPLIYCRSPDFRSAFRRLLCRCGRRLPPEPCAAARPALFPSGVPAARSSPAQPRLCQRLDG
In words: Inhibition of isoproterenol-induced cAMP accumulation in CHO-Huβ3 cells (antagonists). It counts as cell-based. (In general: Changes in cAMP serve as a functional read-out for many G protein-coupled receptors.)

The target of assay [2] is T2, murine RA-β3 (Mus musculus, UniProt P25962).
T2 construct: expressed in transfected cells
T2 sequence (P25962 1-388): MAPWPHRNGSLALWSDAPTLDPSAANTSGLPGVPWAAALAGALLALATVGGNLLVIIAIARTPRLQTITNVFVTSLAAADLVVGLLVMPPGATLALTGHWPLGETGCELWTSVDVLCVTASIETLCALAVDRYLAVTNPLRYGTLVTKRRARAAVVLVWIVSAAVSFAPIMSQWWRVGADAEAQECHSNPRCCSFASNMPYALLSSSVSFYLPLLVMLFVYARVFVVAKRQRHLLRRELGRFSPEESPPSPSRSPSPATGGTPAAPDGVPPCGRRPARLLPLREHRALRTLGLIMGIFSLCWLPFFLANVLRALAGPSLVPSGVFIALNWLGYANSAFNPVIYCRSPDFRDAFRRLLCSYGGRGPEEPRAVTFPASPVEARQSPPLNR
Nature of the assay: Binding of [^125 I]ICYP to saturation, intact CHO-Muβ3 cells. The settings on record: saturation/Scatchard, mean±SEM, n=3, read-out: dissociation constant. Here is the method:
b. Test for the Binding of ICYP
preconfluent cells such as those described in Example 5 (10^5) are incubated for 1 hour at 37° C. in a HANKS buffer containing 20 mM HEPES (pH 7.4), 1 mM ascorbic acid, 2 μM desipramine, 0.05% bovine serum albumin and 70-7000 pM (-)-[^125 I]ICYP (2000 Ci/mmol, Amersham).
The incubations are stopped by dilution in cold PBS buffer and the bound ligand is separated from free [^125 I]ICYP by filtration (Whatman GF/C filters impregnated with 0.3% polyethyleneimine).
The filters are washed 3 times with cold PBS buffer and the radioactivity is measured.

Assay [3] deals with T2, murine RA-β3. Nature of the assay: cAMP accumulation in CHO-Muβ3 cells (agonists). As to conditions: for A.I. (% IPR), intrinsic activity: % of maximum effect of (-)-isoproterenol; for maximum stimulation of cAMP accumulation: % of that for (-)-isoproterenol; for activation of receptor by β1 and β2 antagonists (in words): murine RA-β3; for agonist type (in words): murine RA-β3, CHO-Muβ3. It counts as cell-based. As for the experimental part: (§1) a. Test for cAMP Accumulation
(§2) preconfluent cells such as those described in Example 5 (5×10^5) are incubated at 37° C. for 20 minutes in 0.5 ml of HANKS buffer containing 20 mM HEPES (pH 7.4), 1 mM ascorbic acid, 1 mM isobutylmethylxanthine and various concentrations of agonist.
(§3) After boiling for 5 min and centrifugation (4000 r.p.m., 10 min, 4° C.), the quantity of cAMP produced is determined using the Amersham cAMP kit.
To determine the pharmacological profile of murine RA-β3, the coding region of its gene was inserted into an expression vector like that described in Example 5.
(§4) The Kact values correspond to the agonist concentration giving 50% of the maximum stimulation.

Another assay has as its system obese rat cells. As to conditions: cited from earlier work.
Assay [4] addresses T1, human RA-β3. In words: cAMP accumulation in CHO-Huβ3 cells (agonists). It counts as cell-based. The settings on record: for EC50: CHO-Huβ3, agonist concentration giving 50% of the maximum stimulation, read-out: Kact; for activation of receptor by β1 and β2 antagonists (in words): human RA-β3. Here is the method:
In order to be able to directly compare the properties of the murine and human β3-AR receptors, it was decided to express the mouse β3 gene in the CHO (Chinese Hamster Ovary) cell line which has already been used to analyse the human β3-AR receptor (see French Patent Application No. 89 00918).
as §1, §2, §3, §4

In the next assay the test system is RA-β3. As to conditions: cited from earlier work.
For assay [5], the target named is T2, murine RA-β3. Nature of the assay: Inhibition of (-)-isoproterenol-induced cAMP accumulation in CHO-Muβ3 cells (antagonists). It counts as cell-based. As to conditions: for concentration required to inhibit isoproterenol-induced cAMP accumulation (in words): CHO-Muβ3, 5 nM (-)-isoproterenol; for inhibition of isoproterenol-induced accumulation of cAMP (in words): murine RA-β3.

[6] abbreviates: CHO-Muβ3, agonist concentration giving 50% of the maximum stimulation, read-out: Kact.

Take `CC(C)NCC(O)COc1cccc2ccccc12` (stereo not shown) [Propranolol]: the “inhibition of isoproterenol-induced accumulation of cAMP (in words)” value (from here on “inhibition”) at human RA-β3 [1] is “weak inhibitors”.

On to `CC(C)(C)NC[C@H](O)COc1cccc2[nH]c(C#N)c([125I])c12` [ICYP, [^125 I]iodocyanopindolol], for which the Kd on murine RA-β3 [2] came out at 0.00088 ± 8.8e-05 µM.

At murine RA-β3 [3], `NC[C@H](O)c1ccc(O)c(O)c1` [(-)-noradrenaline] had an EC50 of 0.0129 ± 0.0042 µM. Further, the “stimulation of cAMP accumulation (in words)” value on murine RA-β3 [3] (CHO-Muβ3) was “accumulation of cAMP is stimulated”. Also, the Emax at murine RA-β3 [3] (read-out: A.I. (% IPR), intrinsic activity) was 106 ± 5.6%.

In the case of `C[C@H](Cc1ccc(OCC(=O)O)cc1)NC[C@H](O)c1cccc(Cl)c1` (relative stereo) [BRL 37344], the “stimulation of cAMP accumulation, of lipolysis and of thermogenesis (in words)” value with obese rat cells was “effectiveness in the stimulation of cAMP accumulation, of lipolysis and of thermogenesis”. At murine RA-β3 [3], this compound gave an EC50 of 0.0004 ± 0.0001 µM. In addition, on murine RA-β3 [3] (CHO-Muβ3), the “stimulation of cAMP accumulation (in words)” value is listed as “potent agonist effect” and the “A.I. (% IPR), intrinsic activity” value is recorded as 107.4 ± 8.1%. In addition, the “agonist potency in mice compared with human (in words)” value on murine RA-β3 [3] (murine vs human RA-β3) was “increased potency”.

`CC(C)(C)NCC(O)COc1cccc2[nH]c(=O)[nH]c12` (stereo not shown) [CGP 12177A]: at human RA-β3 [4], the EC50 was 0.139 ± 0.0443 µM; the “activation of receptor by β1 and β2 antagonists (in words)” value (“activation of receptor” for short) is “can be activated”. Besides, on murine RA-β3 [3] (CHO-Muβ3), the “maximum stimulation of cAMP accumulation” value was 77% and the “A.I. (% IPR), intrinsic activity” value is listed as 74.9 ± 7.9%. Besides, on murine RA-β3 [3], the “activation of receptor” value was “can be activated”; the “agonist type (in words)” value is reported as “behave like partial agonists”. The “lipolysis and adenylate cyclase activity (in words)” value in the assay on RA-β3 was “stimulates lipolysis and adenylate cyclase activity”.

Take `Cn1cc(C(F)(F)F)nc1-c1ccc(OCC(O)CNCCOc2ccc(O)c(C(N)=O)c2)cc1` (stereo not shown) [CGP 20712A]: the “inhibition” value at human RA-β3 [1] is “weak inhibitors”. At murine RA-β3 [5], the Ki turned out to be 6.42 ± 0.584 µM, the “concentration required to inhibit isoproterenol-induced cAMP accumulation (in words)” value was “micromolar concentrations are required; also recorded: micromolar amounts” and the “inhibition” value was “weak inhibitors”.

Regarding `CC(C)NCC(O)COc1cccc2[nH]ccc12` (stereo not shown) [pindolol], on human RA-β3 [4], the “activation of receptor” value is on record as “can be activated”. Also, at murine RA-β3 [3] (CHO-Muβ3), the “maximum stimulation of cAMP accumulation” value was 36% and the “A.I. (% IPR), intrinsic activity” value turned out to be 35.1 ± 3.1%. In addition, the EC50 on murine RA-β3 [3] (setting [6]) stood at 0.999 ± 0.197 µM. Also, on murine RA-β3 [3], the “activation of receptor” value was “can be activated”; the “agonist type (in words)” value was “behave like partial agonists”.

Regarding `Cc1ccc(OCC(O)C(C)NC(C)C)c2c1CCC2` (stereo not shown) [ICI 118551], the “inhibition” value against human RA-β3 [1] was “weak inhibitors”. On murine RA-β3 [5], the affinity, expressed as Ki, was 4.97 ± 0.137 µM; the “concentration required to inhibit isoproterenol-induced cAMP accumulation (in words)” value is “micromolar concentrations are required; also recorded: micromolar amounts”; the “inhibition” value is given as “weak inhibitors”.

`CC(C)NCC(O)c1ccc(O)c(O)c1` (single isomer, unassigned; (-)) [(-)-isoproterenol]: the “maximum concentration of cAMP induced by isoproterenol” value at murine RA-β3 [3] is recorded as 500 pmol per million cells.

For the compound `CNCC(O)c1ccc(O)c(O)c1` (single isomer, unassigned; (-)) [(-)-adrenalin], the EC50 at human RA-β3 [4] worked out at 0.0492 ± 0.0053 µM. Further, at murine RA-β3 [3] (CHO-Muβ3), the “stimulation of cAMP accumulation (in words)” value is recorded as “accumulation of cAMP is stimulated” and the “A.I. (% IPR), intrinsic activity” value turned out to be 90.6 ± 2.9%. The EC50 at murine RA-β3 [3] (setting [6]) is 0.023 ± 0.0003 µM.

In the case of `C=CCOc1ccccc1OCC(O)CNC(C)C` (stereo not shown) [oxprenolol], at human RA-β3 [4], the EC50 worked out at 0.0766 ± 0.0126 µM; the “activation of receptor” value is “can be activated”. At murine RA-β3 [3] (CHO-Muβ3), the “maximum stimulation of cAMP accumulation” value is on record as 45% and the “A.I. (% IPR), intrinsic activity” value worked out at 43.8 ± 6.1%. For the same compound, at murine RA-β3 [3] (setting [6]), the EC50 was determined as 0.535 ± 0.0793 µM. At murine RA-β3 [3], the “activation of receptor” value was “can be activated”; the “agonist type (in words)” value is “behave like partial agonists”.

The term Ki denotes the equilibrium dissociation constant of an inhibitor or competing ligand from its target. Read a low Ki as higher affinity.
